Data set [1] deals with HEK293T cells. Put plainly: eGFP plasmid DNA transfection. The class given is cell-based. The conditions noted are these: coacervates loaded with eGFP DNA plasmid 2.5 μg/mL; qualitative microscopy after 96 h. The protocol:
findings were not OVA-specific.
Reserve University) 14,15.
Cytotoxicity and transfection assays
Untreated cells or ethanol treated cells served as controls. Cytotoxicity of all inhibitors was evaluated similarly. For transfection studies, […]
Biosystems, Catalog number: 4060; 2.5 μg/mL). Cells treated with the naked plasmid or […]
complexed with lipofectamine 2000 (3.2 µL) served as controls. GFP expression was assessed qualitatively after 96 h using a Lionheart FX automated microscope (BioTek Instruments, Inc.).
We employed TrueCut Cas9 protein for the knockout of CD55 gene using CRISPR technology, aided with chiral (GHGXY)4 peptide coacervates. The transfection of the Cas9 RNPs (protein + gRNA) was done according to manufacturer’s protocol (Invitrogen). Briefly, A549 cells were cultured in complete DMEM media (supplemented with 10% FBS and 5% Pen Strep) in T-75 flask till full confluency. Cells were then plated at a concentration of 2×10^4 cells/mL in 24 well […]
plates in DMEM media for 24 h. […]
confluent. For positive control, we mixed the TrueCutTM Cas9 protein/sgRNA in Opti-MEM media (17.8 μL) at a concentration of 12.50 μg (75 pmol; Stock 0.5 mg/mL) and 2.4 μg (75 pmol; Stock 1 nmol) for protein and sgRNA respectively, containing 50 μL LipofectamineTM Cas 9 PlusTM reagent (Total Volume: 100 μL) in a RNAse -free microcentrifuge tube. […]

Data set [2] has as its system hiPSC-CMs. Put plainly: Confocal microscopy of cellular uptake in hiPSC-CMs. Particulars: for interaction with the cell membrane of hiPSC-CMs: confocal microscopy; for cellular uptake / localization in hiPSC-CMs: eGFP loaded coacervates (100 nM eGFP), 30 min, 37 °C, confocal. The class given is cell-based, human. How it is done:
Stem cell-derived cardiomyocytes and confocal microscopy
Wild type hiPSCs (WT iPSC 11) were received from the Genome Engineering and Stem Cell Center at Washington University School of Medicine. hiPSCs were cultured in mTeSR Plus […]
medium ([…] Technologies, USA) on 6-well plates coated with Matrigel (1:100, Corning) and grown at 37 °C with 5% CO2. Cells were grown to 80–90% confluency and then passaged as clusters using Versene (Thermo Scientific, USA) into 6-well plates for hiPSC maintenance and […]
into 24-well plates for hiPSC differentiation. Once hiPSCs reached 90% confluence, they were differentiated into cardiomyocytes using small-molecule manipulation of Wnt signaling 10. Non-cardiomyocytes were removed via lactate purification on days 20 and 22 before replating singularized hiPSC cardiomyocytes (hiPSC-CMs) at 40,000 cells per 35-mm glass-bottom dish. hiPSC-CMs were treated with enantiomeric leucine or valine coacervates loaded with eGFP protein (Novus Biologicals, Catalog number: NBP2-34923; 50 μL, final concentration of 100 nM eGFP) for 30 min at 37°C. Samples were fixed with 2% paraformaldehyde (PFA) and three PBS washes (10 min at RT). The cell membrane was stained with wheat germ agglutinin (WGA; Fisher Scientific, Catalog number: W32466; 0.25 μL/mL) conjugated to Alexa Fluor 647 (10 min at RT), followed by three PBS washes (5 minutes at RT). Confocal micrographs of singular hiPSC-CMs were acquired using a Leica Sp8 Lightning single-photon confocal microscope […]
numerical aperture oil immersion objective, two HyD GaAsP detectors, and two high-sensitivity photomultiplier tube detectors. Images were collected as z-stacks (presented as top or bottom view, and single plane) and by Nyquist sampling (or greater) as previously described 11.
All animal experiments were conducted under approved protocols by the Institutional Animal Care and Use Committee (IACUC) at Washington University in St Louis. Femoral and tibial bone marrow from C57BL/6 mice were collected and RBCs lysed using ACK buffer. The cells were plated at 5×10^6 cells per petri dish (150 mm) and differentiated for 7–9 days in complete RPMI-1640 medium (containing 10% heat-inactivated FBS), 55 µM β-mercaptoethanol, 1 mM sodium pyruvate, 10 mM HEPES, 1× MEM non-essential amino acids, 20 ng/mL GM-CSF, 10

Data set [3] is described as follows: Droplet coalescence assay. In kind it is physicochemical. The conditions noted are these: video still images over 15 min; mixing of fluorophore-loaded droplets. How it is done:
wavelength range of 215–260 nm with a bandwidth of 1.00 nm, 0.5 nm step. Solvent background was subtracted from each spectrum and data converted to mean residue ellipticity (MRE).
Droplet coalescence assays
Experiments were conducted to visualize the dynamic process of droplet fusion by capturing a series of still images over 15 min, with each acquisition every 500 ms. Contrast and brightness were adjusted to ensure optimal visibility of the coacervates, and noise cancellation was applied to reduce background interference. Frame correction aligned the images to account for shifts that occurred during capture. Additional enhancements included sharpening to visualize finer details and color correction to ensure that the visual representation closely matched the actual observation. The images were meticulously stacked to create a continuous video sequence that provided a dynamic view of the peptides' behavior, showing the evolution of coacervates from their initial formation, through stabilization and fusion. Significant fusion events were identified and marked with arrows. Advanced tracking algorithms were employed to follow movement and changes within the coacervates, and event segmentation was used to isolate specific interactions […]
Stem cell-derived cardiomyocytes and confocal microscopy […]

From publication PMC11955804, “Histidine-rich enantiomeric peptide coacervates enhance antigen sequestration and presentation to T cells” (Chemical Science, 2025) come the findings set out here.

Consider (GHGLY)4 [GL 20], for which the “eGFP expression after plasmid delivery” value in data set [1] was “robust eGFP expression”. For the same substance, in data set [2], the “interaction with the cell membrane of hiPSC-CMs” value is “interacted with and traversed the cell membrane”; the “cellular uptake / localization in hiPSC-CMs” value was “confirmed their localization within the cells”. Besides, in data set [3], the “droplet fusion (coalescence)” value is recorded as “multiple rapid fusion events”.
Take (GHGVY)4 [GV 20]: the “eGFP expression after plasmid delivery” value in data set [1] is reported as “Poor eGFP expression”. Also, in data set [2], the “interaction with the cell membrane of hiPSC-CMs” value is given as “this behavior was not observed” and the “cellular uptake / localization in hiPSC-CMs” value was “confirmed their localization within the cells”. Moreover, the “droplet fusion (coalescence)” value in data set [3] is “did not exhibit fusion behavior”.
